In assay [1] the target is T1, CX3CR1 (Homo sapiens (Human), UniProt P49238). The assay is described as follows: hCX3CR1 [125I]-CX3CL1 displacement binding (SPA). The settings on record: CHO-hCX3CR1 membranes, [125I]-CX3CL1, SPA beads. How it is done: hCX3CR1 [^125I]-CX3CL1 Displacement Binding (SPA)
CHO-hCX3CR1 membranes (3 μg per well) together with […] [^125I]-CX3CL1 (Perkin Elmer) and different concentrations of competitor compound were incubated together with 400 μg/well WGA coated PVT SPA beads (Perkin Elmer) in 50 mM HEPES (pH 7.4), 10 mM MgCl2, 1 mM EDTA and 0.1% Gelatin in a Greiner polystyrene flat-bottom 384-well plate. The plate was incubated for 20 h at room temperature before the radioactivity was measured using a MicroBeta Trilux reader (PerkinElmer). The DMSO concentration was held constant at 1%.

Assay [2] deals with T1, CX3CR1. Nature of the assay: hCX3CR1 [3H]-AZD8797 competitive binding assay (filter). Conditions: CHO-hCX3CR1 membranes, 2 nM [3H]-AZD8797. A digest of the protocol: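 CHO-hCX3CR1 membranes (9 μg/well) were incubated 2 h at room temperature with 2 nM [3H]-AZD8797 and varying competitor concentrations. Buffer: 25 mM HEPES pH 7.4, 10 mM MgCl2, 1 mM CaCl2, 0.5% BSA, 1% DMSO. Bound ligand was collected by vacuum filtration, washed in ice-cold buffer with 500 mM NaCl, and counted by scintillation.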

T1 sequence (P49238 whole entry): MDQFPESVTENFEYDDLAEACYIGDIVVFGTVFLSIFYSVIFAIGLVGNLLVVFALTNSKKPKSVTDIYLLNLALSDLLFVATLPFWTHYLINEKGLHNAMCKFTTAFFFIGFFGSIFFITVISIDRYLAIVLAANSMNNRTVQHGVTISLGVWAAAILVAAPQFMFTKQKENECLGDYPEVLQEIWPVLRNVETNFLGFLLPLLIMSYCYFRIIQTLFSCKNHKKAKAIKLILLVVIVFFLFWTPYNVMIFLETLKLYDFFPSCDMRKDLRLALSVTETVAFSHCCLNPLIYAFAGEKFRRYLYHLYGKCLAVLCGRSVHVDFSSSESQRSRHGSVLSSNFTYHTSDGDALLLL

As to `CC(C)C[C@H](CO)Nc1nc(C[C@H](C)c2ccc(Cl)c(Cl)c2)nc(NS(C)(=O)=O)n1` (relative stereo) [Example 1, N-(4-((R*)-2-(3,4-Dichlorophenyl)propyl)-6-(((R)-1-hydroxy-4-methylpentan-2-yl)amino)-1,3,5-triazin-2-yl)methanesulfonamide], in assay [1], the IC50 (in general, the concentration at which inhibition is half-maximal) worked out at 1970 nM.
For the compound `CC(C)C[C@H](CO)Nc1nc(C[C@@H](C)c2ccc(Cl)c(Cl)c2)nc(NS(C)(=O)=O)n1` (single isomer, unassigned) [Example 2, N-(4-((S*)-2-(3,4-Dichlorophenyl)propyl)-6-(((R)-1-hydroxy-4-methylpentan-2-yl)amino)-1,3,5-triazin-2-yl)methanesulfonamide], the half-maximal inhibitory concentration (IC50) stood at 362 nM in assay [1] and 361 nM in assay [2].
The like results for `CC(C)C[C@H](CO)Nc1nc(C[C@H](C)c2cccc(Cl)c2F)nc(NS(C)(=O)=O)n1` (single isomer, unassigned) [Example 3, N-(4-((S*)-2-(3-Chloro-2-fluorophenyl)propyl)-6-(((R)-1-hydroxy-4-methylpentan-2-yl)amino)-1,3,5-triazin-2-yl)methanesulfonamide] were, in that order, 448 nM and 124 nM.
As to `CC(C)C[C@H](CO)Nc1nc(C[C@H](C)c2ccc(F)cc2F)nc(NS(C)(=O)=O)n1` (single isomer, unassigned) [Example 5, N-(4-((S*)-2-(2,4-Difluorophenyl)propyl)-6-(((R)-1-hydroxy-4-methylpentan-2-yl)amino)-1,3,5-triazin-2-yl)methanesulfonamide], the IC50 turned out to be 895 nM in assay [1] and 239 nM in assay [2].
In the case of `COc1ncc([C@@H](C)Cc2nc(N[C@@H](CO)CC(C)C)nc(NS(C)(=O)=O)n2)cc1F` (single isomer, unassigned) [Example 8, N-(4-((S*)-2-(5-Fluoro-6-methoxypyridin-3-yl)propyl)-6-(((R)-1-hydroxy-4-methylpentan-2-yl)amino)-1,3,5-triazin-2-yl)methanesulfonamide], the values for the concentration for half-maximal inhibition (IC50) in assay [1] and in assay [2] were greater than 20000 nM and 1350 nM, respectively.
Taken in the same sequence, the figures for `COc1ncc([C@H](C)Cc2nc(N[C@@H](CO)CC(C)C)nc(NS(C)(=O)=O)n2)cc1Cl` (single isomer, unassigned) [Example 9, N-(4-((R*)-2-(5-Chloro-6-methoxypyridin-3-yl)propyl)-6-(((R)-1-hydroxy-4-methylpentan-2-yl)amino)-1,3,5-triazin-2-yl)methanesulfonamide] were greater than 10000 nM and 205 nM.
The like results for `COc1ncc([C@@H](C)Cc2nc(N[C@@H](CO)CC(C)C)nc(NS(C)(=O)=O)n2)cc1Cl` (single isomer, unassigned) [Example 10, N-(4-((S*)-2-(5-Chloro-6-methoxypyridin-3-yl)propyl)-6-(((R)-1-hydroxy-4-methylpentan-2-yl)amino)-1,3,5-triazin-2-yl)methanesulfonamide] were, in that order, greater than 20000 nM and 922 nM.
The like results for `CC(C)C[C@H](CO)Nc1nc(C[C@H](C)c2cnc(C3CC3)nc2)nc(NS(C)(=O)=O)n1` (single isomer, unassigned) [Example 11, N-(4-((S*)-2-(2-Cyclopropylpyrimidin-5-yl)propyl)-6-(((R)-1-hydroxy-4-methylpentan-2-yl)amino)-1,3,5-triazin-2-yl)methanesulfonamide] were, in that order, greater than 30000 nM and greater than 10000 nM.
On to `COc1cc(C)c([C@H](C)Cc2nc(N[C@@H](CO)CC(C)C)nc(NS(C)(=O)=O)n2)cn1` (single isomer, unassigned) [Example 13, N-(4-(((R)-1-Hydroxy-4-methylpentan-2-yl)amino)-6-((R*)-2-(6-methoxy-4-methylpyridin-3-yl)propyl)-1,3,5-triazin-2-yl)methanesulfonamide], for which the 50% inhibitory concentration (IC50) in assay [1] was 4250 nM; in assay [2] it was 614 nM.
Take `COc1ncc([C@H](C)Cc2nc(N[C@@H](CO)CC(C)C)nc(NS(C)(=O)=O)n2)cc1C` (single isomer, unassigned) [Example 15, N-(4-(((R)-1-Hydroxy-4-methylpentan-2-yl)amino)-6-((R*)-2-(6-methoxy-5-methylpyridin-3-yl)propyl)-1,3,5-triazin-2-yl)methanesulfonamide]: the IC50 stood at 2990 nM in assay [1] and 252 nM in assay [2].
Taken in the same sequence, the figures for `COc1ncc([C@@H](C)Cc2nc(N[C@@H](CO)CC(C)C)nc(NS(C)(=O)=O)n2)cc1C` (single isomer, unassigned) [Example 16, N-(4-(((R)-1-Hydroxy-4-methylpentan-2-yl)amino)-6-((S*)-2-(6-methoxy-5-methylpyridin-3-yl)propyl)-1,3,5-triazin-2-yl)methanesulfonamide] were greater than 30000 nM and 4930 nM.
On to `COc1ncccc1[C@H](C)Cc1nc(N[C@@H](CO)CC(C)C)nc(NS(C)(=O)=O)n1` (single isomer, unassigned) [Example 17, N-(4-(((R)-1-Hydroxy-4-methylpentan-2-yl)amino)-6-((R*)-2-(2-methoxypyridin-3-yl)propyl)-1,3,5-triazin-2-yl)methanesulfonamide], for which the IC50 in assay [1] was determined as 4370 nM; in assay [2], 307 nM.
Taken in the same sequence, the figures for `COc1ncccc1[C@@H](C)Cc1nc(N[C@@H](CO)CC(C)C)nc(NS(C)(=O)=O)n1` (single isomer, unassigned) [Example 18, N-(4-(((R)-1-Hydroxy-4-methylpentan-2-yl)amino)-6-((S*)-2-(2-methoxypyridin-3-yl)propyl)-1,3,5-triazin-2-yl)methanesulfonamide] were 16700 nM and 758 nM.
The like results for `CC(C)C[C@H](CO)Nc1nc(C[C@H](C)c2ccnc(Cl)c2)nc(NS(C)(=O)=O)n1` (single isomer, unassigned) [Example 25, N-(4-((S*)-2-(2-Chloropyridin-4-yl)propyl)-6-(((R)-1-hydroxy-4-methylpentan-2-yl)amino)-1,3,5-triazin-2-yl)methanesulfonamide] were, in that order, 13500 nM and 1350 nM.
Regarding `COc1ccc([C@H](C)Cc2nc(N[C@@H](CO)CC(C)C)nc(NS(C)(=O)=O)n2)c(OC)n1` (single isomer, unassigned) [Example 52, N-(4-((R*)-2-(2,6-Dimethoxypyridin-3-yl)propyl)-6-(((R)-1-hydroxy-4-methylpentan-2-yl)amino)-1,3,5-triazin-2-yl)methanesulfonamide], the results for the IC50 in assay [1] and in assay [2] were 5520 nM and 450 nM, respectively.
The like results for `COc1ccc([C@@H](C)Cc2nc(N[C@@H](CO)CC(C)C)nc(NS(C)(=O)=O)n2)c(OC)n1` (single isomer, unassigned) [Example 53, N-(4-((S*)-2-(2,6-Dimethoxypyridin-3-yl)propyl)-6-(((R)-1-hydroxy-4-methylpentan-2-yl)amino)-1,3,5-triazin-2-yl)methanesulfonamide] were, in that order, 11000 nM and 528 nM.
In assay [1], `CC(C)C[C@H](CO)Nc1nc(C[C@H](C)c2ccccc2)nc(NS(C)(=O)=O)n1` (single isomer, unassigned) [Example 147, N-(4-(((R)-1-Hydroxy-4-methylpentan-2-yl)amino)-6-((S*)-2-phenylpropyl)-1,3,5-triazin-2-yl)methanesulfonamide] gave a half-inhibitory concentration (IC50) greater than 10000 nM.

The values above are taken from patent publication US20240199558A1, “2,4,6-TRISUBSTITUTED 1,3,5-TRIAZINES AS MODULATORS OF CX3CR1” (ASTRAZENECA AB, priority 2022, published 2024).
